Our source for the IC50 and Km values is article doi:10.1101/2021.07.01.450682v1 (biorxiv, 2021).

In data set [1] the target is T1, PfLPL3 (lysophospholipase 3; recombinant hydrolase domain) (Plasmodium falciparum, UniProt Q8IK68).
T1 sequence (Q8IK68 41-338): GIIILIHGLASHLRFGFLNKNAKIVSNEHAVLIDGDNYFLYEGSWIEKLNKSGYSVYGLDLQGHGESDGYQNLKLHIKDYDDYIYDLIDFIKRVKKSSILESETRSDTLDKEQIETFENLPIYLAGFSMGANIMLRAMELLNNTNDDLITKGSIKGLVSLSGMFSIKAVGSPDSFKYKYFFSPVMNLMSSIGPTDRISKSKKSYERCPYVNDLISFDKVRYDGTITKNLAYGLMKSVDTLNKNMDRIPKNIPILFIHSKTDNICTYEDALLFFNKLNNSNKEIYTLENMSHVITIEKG
In words: coupled fluorescent lysophospholipase assay. It is filed as biochemical. The conditions noted are these: 16:0 LPC substrate; 50 mM Tris pH 8.0, 5 mM CaCl2; 20 μg enzyme in 200 μl.

Substrate in the data set “purified protein”: CCCCCCCCCCCCCCCC(=O)OC[C@@H](O)COP(=O)([O-])OCC[N+](C)(C)C
As to the kind of experiment: purified protein. The conditions noted are these: 50 mM Tris pH 8.0, 5 mM CaCl2, 20 μg enzyme.

For orientation: IC50 means the concentration at which inhibition is half-maximal. As to `CCOc1cc(Br)c(C(C)NC(=O)c2cccc(OC)c2)cc1OCC` (stereo not drawn) [PCB7, MMV665796], the half-maximal inhibitory concentration (IC50) in data set [1] turned out to be 920 nM. Still for that read-out and setting: under `O=C(CCc1ccccc1)c1ccccc1OCC(O)CN1CCCCC1` (stereo not drawn) [PCB6, MMV009015] stands 1260 nM.

B1: PfLPL3 (lysophospholipase 3; recombinant hydrolase domain) (Plasmodium falciparum 3D7) (protein)
chain: T1 sequence (Q8IK68 41-338)
As usually defined, the Km is the concentration of substrate that gives half-maximal velocity. Regarding B1, in “purified protein”, the Michaelis-Menten constant (Km) turned out to be 49.25 µM.
